Data as given in patent US11325889B2, “Substituted 3-((3-aminophenyl)amino)piperidine-2,6-dione compounds, compositions thereof, and methods of treatment therewith” (Celgene Corporation, priority 2018, dated 2022).
Where two headings read alike, the source gives them in different places.

Biological target: T1, AR protein in VCaP cells (Homo sapiens, UniProt P10275)
T1 construct: endogenous in cells; host or cells: VCaP cells
T1 sequence (P10275 1-920): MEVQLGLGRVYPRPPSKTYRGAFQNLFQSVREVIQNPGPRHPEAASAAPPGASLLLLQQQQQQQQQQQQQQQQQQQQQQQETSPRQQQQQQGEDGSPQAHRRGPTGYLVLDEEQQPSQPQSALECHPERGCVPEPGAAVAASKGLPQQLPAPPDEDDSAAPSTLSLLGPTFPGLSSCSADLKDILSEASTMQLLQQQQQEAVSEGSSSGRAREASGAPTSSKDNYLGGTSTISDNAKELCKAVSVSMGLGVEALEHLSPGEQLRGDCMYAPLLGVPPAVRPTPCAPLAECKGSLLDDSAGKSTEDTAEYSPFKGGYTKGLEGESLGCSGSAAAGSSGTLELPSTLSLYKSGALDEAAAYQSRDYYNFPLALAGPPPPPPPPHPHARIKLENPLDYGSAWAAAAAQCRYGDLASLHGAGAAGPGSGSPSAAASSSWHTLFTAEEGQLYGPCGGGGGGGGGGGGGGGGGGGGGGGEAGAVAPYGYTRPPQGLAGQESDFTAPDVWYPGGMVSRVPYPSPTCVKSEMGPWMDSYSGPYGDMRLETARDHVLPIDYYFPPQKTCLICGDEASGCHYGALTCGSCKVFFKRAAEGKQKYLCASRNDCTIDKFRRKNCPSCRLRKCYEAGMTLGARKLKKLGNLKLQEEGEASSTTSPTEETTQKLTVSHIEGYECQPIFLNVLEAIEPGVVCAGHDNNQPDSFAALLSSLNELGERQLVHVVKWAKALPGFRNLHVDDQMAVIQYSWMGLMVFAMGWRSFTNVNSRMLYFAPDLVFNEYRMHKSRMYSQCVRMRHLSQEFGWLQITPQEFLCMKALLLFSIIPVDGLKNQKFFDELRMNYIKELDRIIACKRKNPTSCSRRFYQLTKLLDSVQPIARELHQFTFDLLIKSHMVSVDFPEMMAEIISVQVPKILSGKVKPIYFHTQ
Experiment: VCAP AR Degradation Assay (AR ELISA, 24 h)
Type: cell-based
Conditions: for Y (lowest measured AR level normalized to DMSO control): AR degradation efficiency; for DC50: concentration of compound when AR level = 50% of DMSO control
Procedure, shortened: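 VCaP cells in DMEM with 8% FBS exposed for 24 h at 37° C to a 10-point, 1:3 series (final top concentration […]; 0.1% DMSO control). Lysate AR measured by sandwich ELISA and normalized to DMSO as percent of control. DC50, EC50 and lowest AR level (Y) from four-parameter logistic fit.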

SMILES | Y (lowest measured AR level normalized to DMSO control) | DC50 (read-out: DC50) | DC50
CCc1cc(N2C(=S)N(c3cnc(C#N)c(C(F)(F)F)c3)C(=O)C2(C)C)ccc1OCCC1CCN(CC(=O)Nc2cccc(NC3CCC(=O)NC3=O)c2)CC1 (stereo not drawn) [Cmpd 12, 2-(4-(2-(4-(3-(6-cyano-5-(trifluoromethyl)pyridin-3-yl)-5,5-dimethyl-4-oxo-2-thioxoimidazolidin-1-yl)-2-ethylphenoxy)ethyl)piperidin-1-yl)-N-(3-(2,6-dioxopiperidin-3-ylamino)phenyl)acetamide] | * (0<Y<=25%) | < 100 nM | 
CCc1cc(N2C(=S)N(c3cnc(C#N)c(C(F)(F)F)c3)C(=O)C2(C)C)ccc1OCC[C@H]1C[C@H]2CC[C@@H](C1)N2CC(=O)Nc1cccc(NC2CCC(=O)NC2=O)c1 (stereo partly drawn) [Cmpd 65, 2-((1R,3r,5S)-3-(2-(4-(3-(6-cyano-5-(trifluoromethyl)pyridin-3-yl)-5,5-dimethyl-4-oxo-2-thioxoimidazolidin-1-yl)-2-ethylphenoxy)ethyl)-8-azabicyclo[3.2.1]octan-8-yl)-N-(3-(2,6-dioxopiperidin-3-ylamino)phenyl)acetamide] | * (0<Y<=25%) |  | < 100 nM
CCc1cc(N2C(=S)N(c3cnc(C#N)c(C(F)(F)F)c3)C(=O)C23CCC3)ccc1OCC[C@H]1CCN(CC(=O)Nc2cccc(NC3CCC(=O)NC3=O)c2)C(C)(C)C1 (stereo partly drawn) [Cmpd 55, 2-((S)-4-(2-(4-(7-(6-cyano-5-(trifluoromethyl)pyridin-3-yl)-8-oxo-6-thioxo-5,7-diazaspiro[3.4]octan-5-yl)-2-ethylphenoxy)ethyl)-2,2-dimethylpiperidin-1-yl)-N-(3-(2,6-dioxopiperidin-3-ylamino)phenyl)acetamide] | * (0<Y<=25%) | 100 to 500 nM | 
CCc1cc(N2C(=S)N(c3cnc(C#N)c(C(F)(F)F)c3)C(=O)C23CCC3)ccc1OCC[C@@H]1C[C@H]2CC[C@@H](C1)N2CC(=O)Nc1cccc(NC2CCC(=O)NC2=O)c1 (stereo partly drawn) [Cmpd 68, 2-((1R,3s,5S)-3-(2-(4-(7-(6-cyano-5-(trifluoromethyl)pyridin-3-yl)-8-oxo-6-thioxo-5,7-diazaspiro[3.4]octan-5-yl)-2-ethylphenoxy)ethyl)-8-azabicyclo[3.2.1]octan-8-yl)-N-(3-(2,6-dioxopiperidin-3-ylamino)phenyl)acetamide] | * (0<Y<=25%) |  | < 100 nM
CCc1cc(N2C(=S)N(c3cnc(C#N)c(C(F)(F)F)c3)C(=O)C2(C)C)ccc1OC1C[C@H]2CC[C@@H](C1)N2CC(=O)Nc1cccc(NC2CCC(=O)NC2=O)c1 (stereo partly drawn) [Cmpd 87, 2-((1R,3s,5S)-3-(4-(3-(6-cyano-5-(trifluoromethyl)pyridin-3-yl)-5,5-dimethyl-4-oxo-2-thioxoimidazolidin-1-yl)-2-ethylphenoxy)-8-azabicyclo[3.2.1]octan-8-yl)-N-(3-(2,6-dioxopiperidin-3-ylamino)phenyl)acetamide] | *** (35%<Y<50%) | 500 to 1000 nM | 
CCc1cc(N2C(=S)N(c3cnc(C#N)c(C(F)(F)F)c3)C(=O)C23CCC3)ccc1OCCC1CCN([C@@H](C)C(=O)Nc2cccc(NC3CCC(=O)NC3=O)c2)CC1 (stereo partly drawn) [Cmpd 83, (2S)-2-(4-(2-(4-(7-(6-cyano-5-(trifluoromethyl)pyridin-3-yl)-8-oxo-6-thioxo-5,7-diazaspiro[3.4]octan-5-yl)-2-ethylphenoxy)ethyl)piperidin-1-yl)-N-(3-(2,6-dioxopiperidin-3-ylamino)phenyl)propanamide] | * (0<Y<=25%) | < 100 nM | 
CCc1cc(N2C(=S)N(c3ccc(C#N)c(C(F)(F)F)c3)C(=O)C23CCC3)ccc1OCCC1CCN([C@@H](C)C(=O)Nc2cc(Cl)cc(NC3CCC(=O)NC3=O)c2)CC1 (stereo partly drawn) [Cmpd 32, (2S)-N-(3-chloro-5-(2,6-dioxopiperidin-3-ylamino)phenyl)-2-(4-(2-(4-(7-(4-cyano-3-(trifluoromethyl)phenyl)-8-oxo-6-thioxo-5,7-diazaspiro[3.4]octan-5-yl)-2-ethylphenoxy)ethyl)piperidin-1-yl)propanamide] | ** (25%<Y<=35%) | 100 to 500 nM | 
CCc1cc(N2C(=S)N(c3cnc(C#N)c(C(F)(F)F)c3)C(=O)C2(C)C)ccc1OCCC1CCN(CC(=O)Nc2cc(F)cc(NC3CCC(=O)NC3=O)c2)CC1 (stereo not drawn) [Cmpd 16, 2-(4-(2-(4-(3-(6-cyano-5-(trifluoromethyl)pyridin-3-yl)-5,5-dimethyl-4-oxo-2-thioxoimidazolidin-1-yl)-2-ethylphenoxy)ethyl)piperidin-1-yl)-N-(3-(2,6-dioxopiperidin-3-ylamino)-5-fluorophenyl)acetamide] | * (0<Y<=25%) | < 100 nM | 
CCc1cc(N2C(=S)N(c3ccc(C#N)c(C(F)(F)F)c3)C(=O)C2(C)C)ccc1OCCC1CCN([C@H](C)C(=O)Nc2cc(Cl)cc(NC3CCC(=O)NC3=O)c2)CC1 (stereo partly drawn) [Cmpd 21, (2R)-N-(3-chloro-5-(2,6-dioxopiperidin-3-ylamino)phenyl)-2-(4-(2-(4-(3-(4-cyano-3-(trifluoromethyl)phenyl)-5,5-dimethyl-4-oxo-2-thioxoimidazolidin-1-yl)-2-ethylphenoxy)ethyl)piperidin-1-yl)propanamide] | * (0<Y<=25%) | 100 to 500 nM | 
CCc1cc(N2C(=S)N(c3cnc(C#N)c(C(F)(F)F)c3)C(=O)C2(C)C)ccc1OCC[C@@H]1CCN(CC(=O)Nc2cccc(NC3CCC(=O)NC3=O)c2)[C@H](C)C1 (stereo partly drawn) [Cmpd 78, 2-((2R,4R)-4-(2-(4-(3-(6-cyano-5-(trifluoromethyl)pyridin-3-yl)-5,5-dimethyl-4-oxo-2-thioxoimidazolidin-1-yl)-2-ethylphenoxy)ethyl)-2-methylpiperidin-1-yl)-N-(3-(2,6-dioxopiperidin-3-ylamino)phenyl)acetamide] | * (0<Y<=25%) | < 100 nM | 
CCc1cc(N2C(=S)N(c3cnc(C#N)c(C(F)(F)F)c3)C(=O)C23CCC3)ccc1OCCC1CCN([C@@H](C)C(=O)Nc2cc(Cl)cc(NC3CCC(=O)NC3=O)c2)CC1 (stereo partly drawn) [Cmpd 35, (2S)-N-(3-chloro-5-(2,6-dioxopiperidin-3-ylamino)phenyl)-2-(4-(2-(4-(7-(6-cyano-5-(trifluoromethyl)pyridin-3-yl)-8-oxo-6-thioxo-5,7-diazaspiro[3.4]octan-5-yl)-2-ethylphenoxy)ethyl)piperidin-1-yl)propanamide] | * (0<Y<=25%) | 100 to 500 nM | 
CC1(C)C(=O)N(c2ccc(C#N)c(C(F)(F)F)c2)C(=S)N1c1ccc(OCCC2CCN(CC(=O)Nc3cccc(NC4CCC(=O)NC4=O)c3)CC2)c(Cl)c1 (stereo not drawn) [Cmpd 4, 2-(4-(2-(2-chloro-4-(3-(4-cyano-3-(trifluoromethyl)phenyl)-5,5-dimethyl-4-oxo-2-thioxoimidazolidin-1-yl)phenoxy)ethyl)piperidin-1-yl)-N-(3-(2,6-dioxopiperidin-3-ylamino)phenyl)acetamide] | ** (25%<Y<=35%) | 100 to 500 nM | 
CC1(C)C(=O)N(c2ccc(C#N)c(C(F)(F)F)c2)C(=S)N1c1ccc(OCCC2CCN(CC(=O)Nc3cccc(NC4CCC(=O)NC4=O)c3)CC2)c(F)c1 (stereo not drawn) [Cmpd 3, 2-(4-(2-(4-(3-(4-cyano-3-(trifluoromethyl)phenyl)-5,5-dimethyl-4-oxo-2-thioxoimidazolidin-1-yl)-2-fluorophenoxy)ethyl)piperidin-1-yl)-N-(3-(2,6-dioxopiperidin-3-ylamino)phenyl)acetamide] | ** (25%<Y<=35%) | 100 to 500 nM | 
CCc1cc(N2C(=S)N(c3ccc(C#N)c(C(F)(F)F)c3)C(=O)C2(C)C)ccc1OCC[C@@H]1CCN(CC(=O)Nc2cccc(NC3CCC(=O)NC3=O)c2)[C@H](C)C1 (stereo partly drawn) [Cmpd 71, 2-((2R,4R)-4-(2-(4-(3-(4-cyano-3-(trifluoromethyl)phenyl)-5,5-dimethyl-4-oxo-2-thioxoimidazolidin-1-yl)-2-ethylphenoxy)ethyl)-2-methylpiperidin-1-yl)-N-(3-(2,6-dioxopiperidin-3-ylamino)phenyl)acetamide] | * (0<Y<=25%) | < 100 nM | 
CCc1cc(N2C(=S)N(c3cnc(C#N)c(C(F)(F)F)c3)C(=O)C2(C)C)ccc1OCCC1CCN([C@H](C)C(=O)Nc2cc(C#N)cc(NC3CCC(=O)NC3=O)c2)CC1 (stereo partly drawn) [Cmpd 38, (2R)-N-(3-cyano-5-(2,6-dioxopiperidin-3-ylamino)phenyl)-2-(4-(2-(4-(3-(6-cyano-5-(trifluoromethyl)pyridin-3-yl)-5,5-dimethyl-4-oxo-2-thioxoimidazolidin-1-yl)-2-ethylphenoxy)ethyl)piperidin-1-yl)propanamide] | ** (25%<Y<=35%) | < 100 nM | 
